Measurements from ChEMBL document CHEMBL3865840, “Minimizing CYP2C9 Inhibition of Exposed-Pyridine NAMPT (Nicotinamide Phosphoribosyltransferase) Inhibitors” (J Med Chem, 2016).

What was measured:
[1] = Octanol-aqueous phosphate buffer distribution coefficient, log D of the compound at pH 7.4 after 1 hr by LC/MS/MS analysis; type: physicochemical
[2] = biological target: Cytochrome P450 2C9 (Homo sapiens, UniProt P11712)
[3] = Apparent permeability from basolateral to apical side in MDCK cells at 10 uM by LC/MS/MS analysis; type: ADME, cell-based, Canis lupus familiaris; conditions: dog
[4] = Apparent permeability from apical to basolateral side in MDCK cells at 10 uM by LC/MS/MS analysis; type: ADME, cell-based, Canis lupus familiaris; conditions: dog
[5] = biological target: Cytochrome P450 2C19 (Homo sapiens, UniProt P33261)
Sequence of Cytochrome P450 2C19 (P33261 whole entry): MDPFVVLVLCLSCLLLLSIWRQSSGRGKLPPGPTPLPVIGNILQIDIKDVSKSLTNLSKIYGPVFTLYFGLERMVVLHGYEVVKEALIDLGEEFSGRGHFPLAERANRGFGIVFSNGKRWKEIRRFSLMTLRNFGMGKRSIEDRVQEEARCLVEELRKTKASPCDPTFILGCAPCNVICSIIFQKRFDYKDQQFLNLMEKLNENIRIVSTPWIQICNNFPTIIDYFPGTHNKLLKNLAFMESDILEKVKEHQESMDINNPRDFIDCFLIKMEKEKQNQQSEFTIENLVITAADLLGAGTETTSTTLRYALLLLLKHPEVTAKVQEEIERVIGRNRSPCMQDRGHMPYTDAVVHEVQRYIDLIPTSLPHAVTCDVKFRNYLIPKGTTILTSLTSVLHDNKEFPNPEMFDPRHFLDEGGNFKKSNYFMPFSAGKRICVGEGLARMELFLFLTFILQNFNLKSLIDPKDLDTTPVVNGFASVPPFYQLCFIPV

[6] = biological target: T1, Cytochrome P450 1A2 (Homo sapiens, UniProt P05177)
T1 sequence (P05177 whole entry): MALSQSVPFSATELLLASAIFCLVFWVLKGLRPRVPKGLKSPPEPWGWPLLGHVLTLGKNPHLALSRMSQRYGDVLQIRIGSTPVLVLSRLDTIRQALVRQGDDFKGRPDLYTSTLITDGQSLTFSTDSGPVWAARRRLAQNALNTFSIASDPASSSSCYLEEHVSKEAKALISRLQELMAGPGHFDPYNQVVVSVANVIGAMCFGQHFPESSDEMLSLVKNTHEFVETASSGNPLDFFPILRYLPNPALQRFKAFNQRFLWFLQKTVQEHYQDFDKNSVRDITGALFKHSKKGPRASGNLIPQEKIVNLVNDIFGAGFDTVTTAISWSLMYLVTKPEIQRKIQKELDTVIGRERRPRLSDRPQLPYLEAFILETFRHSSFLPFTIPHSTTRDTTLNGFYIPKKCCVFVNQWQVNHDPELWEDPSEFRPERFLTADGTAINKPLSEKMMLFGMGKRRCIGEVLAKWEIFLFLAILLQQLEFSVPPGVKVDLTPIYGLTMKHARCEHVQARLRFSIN

[7] = biological target: T2, Cytochrome P450 3A4 (Homo sapiens, UniProt P08684); assay: Time dependent inhibition of CYP3A4 in human liver microsomes assessed as substrate AUC shift using midazolam as substrate; type: ADME; set-up: scale not given: the % may be the effect or the level left
T2 sequence (P08684 whole entry): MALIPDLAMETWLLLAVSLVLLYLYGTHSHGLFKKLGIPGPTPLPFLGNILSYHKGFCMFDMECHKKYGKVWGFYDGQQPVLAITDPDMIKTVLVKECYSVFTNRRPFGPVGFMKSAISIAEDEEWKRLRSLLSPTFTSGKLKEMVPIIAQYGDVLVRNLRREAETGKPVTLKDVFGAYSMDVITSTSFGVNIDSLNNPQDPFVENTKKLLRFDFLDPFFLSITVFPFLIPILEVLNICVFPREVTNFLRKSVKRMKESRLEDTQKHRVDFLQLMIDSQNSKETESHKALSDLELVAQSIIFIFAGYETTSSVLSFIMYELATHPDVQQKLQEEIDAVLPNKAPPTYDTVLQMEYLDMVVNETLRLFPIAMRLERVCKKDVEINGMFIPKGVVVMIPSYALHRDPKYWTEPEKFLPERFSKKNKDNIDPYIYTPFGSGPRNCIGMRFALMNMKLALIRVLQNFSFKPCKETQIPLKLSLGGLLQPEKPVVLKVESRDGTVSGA

[8] = biological target: T2, Cytochrome P450 3A4; assay: Time dependent inhibition of CYP3A4 in human liver microsomes assessed as substrate AUC shift using testosterone as substrate; type: ADME; set-up: scale not given: the % may be the effect or the level left
[9] = biological target: Cytochrome P450 2D6 (Homo sapiens, UniProt P10635)
Sequence of Cytochrome P450 2D6 (P10635 whole entry): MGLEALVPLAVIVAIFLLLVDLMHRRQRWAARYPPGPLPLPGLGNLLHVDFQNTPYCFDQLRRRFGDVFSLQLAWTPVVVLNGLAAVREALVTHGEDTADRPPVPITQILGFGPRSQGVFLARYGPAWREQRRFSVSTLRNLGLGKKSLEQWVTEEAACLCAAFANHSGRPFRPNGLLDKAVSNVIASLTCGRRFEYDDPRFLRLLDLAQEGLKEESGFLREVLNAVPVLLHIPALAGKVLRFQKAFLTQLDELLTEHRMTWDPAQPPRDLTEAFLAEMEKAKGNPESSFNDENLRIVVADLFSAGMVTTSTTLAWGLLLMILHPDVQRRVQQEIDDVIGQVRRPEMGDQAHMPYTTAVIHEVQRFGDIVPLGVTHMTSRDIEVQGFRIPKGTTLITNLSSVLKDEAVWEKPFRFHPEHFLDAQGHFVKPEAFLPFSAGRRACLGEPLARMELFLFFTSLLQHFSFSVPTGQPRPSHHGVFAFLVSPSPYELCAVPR

Sequence of Cytochrome P450 2C9 (P11712 whole entry): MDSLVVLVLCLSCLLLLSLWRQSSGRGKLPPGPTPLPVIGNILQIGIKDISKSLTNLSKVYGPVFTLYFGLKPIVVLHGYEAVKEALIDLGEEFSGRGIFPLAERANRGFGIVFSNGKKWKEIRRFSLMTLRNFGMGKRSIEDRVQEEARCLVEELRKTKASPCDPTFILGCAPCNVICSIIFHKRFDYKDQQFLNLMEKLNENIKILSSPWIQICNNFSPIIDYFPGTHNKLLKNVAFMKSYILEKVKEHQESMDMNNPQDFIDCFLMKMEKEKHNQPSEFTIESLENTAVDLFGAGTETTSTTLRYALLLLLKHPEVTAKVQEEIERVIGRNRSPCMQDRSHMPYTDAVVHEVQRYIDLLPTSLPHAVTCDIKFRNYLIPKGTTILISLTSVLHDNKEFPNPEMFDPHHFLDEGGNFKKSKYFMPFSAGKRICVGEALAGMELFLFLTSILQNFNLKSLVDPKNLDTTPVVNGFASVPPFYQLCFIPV

Compound | IC50 [2] | Papp B→A at 10 µM [3] | Papp A→B at 10 µM [4] | other results
O=C(NCc1ccc(S(=O)(=O)C2CCCCC2)cc1)N1Cc2ccncc2C1 | – | – | – | logD at 1 h [1]: 2
O=C(NCC1CC12CCN(C(=O)c1ccccc1)CC2)N1Cc2ccncc2C1 (racemic) | > 10 µM | 19 ×10⁻⁶ cm/s | 7.9 ×10⁻⁶ cm/s | –
O=C(NCC1CC12CCN(CCc1ccccc1)CC2)N1Cc2ccncc2C1 (racemic) | > 10 µM | – | – | –
CC(C)CC(=O)N1CCC2(CC1)CC2CNC(=O)N1Cc2ccncc2C1 (racemic) | > 10 µM | 14 ×10⁻⁶ cm/s | 7.3 ×10⁻⁶ cm/s | –
Cc1nc(C)c(C(=O)N2CCC3(CC2)CC3CNC(=O)N2Cc3ccncc3C2)o1 (racemic) | – | 9 ×10⁻⁶ cm/s | 1.4 ×10⁻⁶ cm/s | –
N#CN=C(NCCCCCCOc1ccc(Cl)cc1)Nc1ccncc1 [CHS-828] | – | – | – | IC50 [5]: 0.63 µM; IC50 [6]: > 10 µM
Nc1cc2c(cn1)CN(C(=O)NCc1ccc(S(=O)(=O)c3ccccc3)cc1)C2 | > 10 µM | – | – | –
CN(C)C(=O)c1cccc(COc2ccc(CNC(=O)c3cc4cnccc4[nH]3)cc2)c1 | 0.4 µM | – | – | logD at 1 h [1]: 2.5
CC(C)(C)CC(=O)N1CCC2(CC1)CC2CNC(=O)N1Cc2ccncc2C1 (racemic) | > 10 µM | 13 ×10⁻⁶ cm/s | 9.2 ×10⁻⁶ cm/s | –
O=C(NCc1ccccc1)c1cc2cnccc2[nH]1 | > 10 µM | – | – | logD at 1 h [1]: 2.2
O=C(CCC(F)(F)F)N1CCC2(CC1)CC2CNC(=O)N1Cc2ccncc2C1 (racemic) | > 10 µM | – | – | –
O=C(NCc1ccc(C(=O)N2CCCC2)cc1)c1cc2cnccc2[nH]1 | 0.45 µM | – | – | logD at 1 h [1]: 1.6
CC1(OC(=O)N2CCC3(CC2)CC3CNC(=O)N2Cc3ccncc3C2)COC1 (racemic) | > 10 µM | 16 ×10⁻⁶ cm/s | 11 ×10⁻⁶ cm/s | –
CC(C)(C)OC(=O)N1CCCC(CCNC(=O)c2cc3cnccc3[nH]2)C1 (racemic) | 3.4 µM | – | – | –
O=C(NCc1cccnc1)Nc1ccc(S(=O)(=O)N2CCC3(CCNC3)CC2)cc1 | – | 0.43 ×10⁻⁶ cm/s | – | logD at 1 h [1]: < -0.5
O=C(NCc1ccc(NS(=O)(=O)C2CCCC2)cc1)c1cc2cnccc2[nH]1 | 0.36 µM | – | – | logD at 1 h [1]: 2.5
CC(C)CNC(=O)c1cc2cnccc2[nH]1 | > 10 µM | – | – | logD at 1 h [1]: 1.7
Cc1nn(C)c(C)c1C(=O)N1CCC2(CC1)CC2CNC(=O)N1Cc2ccncc2C1 (racemic) | > 10 µM | 1.9 ×10⁻⁶ cm/s | 0.2 ×10⁻⁶ cm/s | –
CN1CCC(c2ccc(C(=O)N3CCC4(CC3)CC4CNC(=O)N3Cc4ccncc4C3)cc2)CC1 (racemic) | > 10 µM | 1 ×10⁻⁶ cm/s | 0.2 ×10⁻⁶ cm/s | –
CC1(CC(=O)N2CCC3(CC2)CC3CNC(=O)N2Cc3ccncc3C2)CCOCC1 (racemic) | > 10 µM | 9.1 ×10⁻⁶ cm/s | 1 ×10⁻⁶ cm/s | –
CC(C)(C)OC(=O)N1CCC2(CCC(CNC(=O)c3cc4cnccc4[nH]3)OC2)CC1 (racemic) | > 10 µM | – | – | –
O=C(NCC1CCCCC1)c1cc2cnccc2[nH]1 | > 10 µM | – | – | logD at 1 h [1]: 3.1
CC1(CC(=O)N2CCC3(CC2)CC3CNC(=O)N2Cc3ccncc3C2)COC1 (racemic) | > 10 µM | 4 ×10⁻⁶ cm/s | 1.4 ×10⁻⁶ cm/s | –
CC(C)(C)OC(=O)N1CCC(CCNC(=O)c2cc3cnccc3[nH]2)CC1 | > 10 µM | – | – | –
CC(C)OC(=O)N1CCC2(CC1)CC2CNC(=O)N1Cc2ccncc2C1 (racemic) | > 10 µM | 14 ×10⁻⁶ cm/s | 13 ×10⁻⁶ cm/s | –
CCOC(=O)N1CCC2(CC1)CC2CNC(=O)N1Cc2ccncc2C1 (racemic) | > 10 µM | – | – | –

Compound | IC50 [2] | Papp B→A at 10 µM [3] | Papp A→B at 10 µM [4] | other results
CC(C)(C)OC(=O)N1CCC2(CC1)CC2CNC(=O)c1cnc2nccn2c1 (racemic) | > 10 µM | – | – | –
O=C(NCc1cccnc1)Nc1ccc(S(=O)(=O)c2ccccc2)cc1 | – | 11 ×10⁻⁶ cm/s | 3.1 ×10⁻⁶ cm/s | logD at 1 h [1]: 2.7
O=C(NCc1ccc([S@@+]([O-])c2cc(F)cc(F)c2)cn1)c1cc2ccncc2o1 | – | 9 ×10⁻⁶ cm/s | 21 ×10⁻⁶ cm/s | logD at 1 h [1]: 2
Cc1ccncc1C(=O)N1CCC2(CC1)CC2CNC(=O)N1Cc2ccncc2C1 (racemic) | – | 2.7 ×10⁻⁶ cm/s | 0.3 ×10⁻⁶ cm/s | –
CC1(OC(=O)N2CCC3(CC2)CC3CNC(=O)N2Cc3ccncc3C2)CCC1 (racemic) | > 10 µM | 12 ×10⁻⁶ cm/s | 15 ×10⁻⁶ cm/s | –
CC1(OC(=O)N2CCC3(CC2)C[C@H]3CNC(=O)N2Cc3ccncc3C2)COC1 | – | 15 ×10⁻⁶ cm/s | 11 ×10⁻⁶ cm/s | –
Nc1cc2cc(C(=O)NCc3ccc(S(=O)(=O)c4ccccc4)cc3)oc2cn1 | 3.9 µM | – | – | –
O=C(CCC1CCOCC1)N1CCC2(CC1)CC2CNC(=O)N1Cc2ccncc2C1 (racemic) | > 10 µM | 11 ×10⁻⁶ cm/s | 1.6 ×10⁻⁶ cm/s | –
CC1(O)CC(CC(=O)N2CCC3(CC2)CC3CNC(=O)N2Cc3ccncc3C2)C1 (racemic) | – | 1 ×10⁻⁶ cm/s | 0.2 ×10⁻⁶ cm/s | –
CC(C)(C)OC(=O)N1CCC2(CC1)CC2CNC(=O)c1cc2ccncc2s1 (racemic) | 7.2 µM | – | – | –
Cc1nc(C)c(C(=O)N2CCC3(CC2)CC3CNC(=O)N2Cc3ccncc3C2)s1 (racemic) | – | 11 ×10⁻⁶ cm/s | 1.4 ×10⁻⁶ cm/s | –
NS(=O)(=O)c1ccc(CNC(=O)c2cc3cnccc3[nH]2)cc1 | 0.34 µM | – | – | logD at 1 h [1]: 0.6
Cc1c(C(=O)N2CCC3(CC2)CC3CNC(=O)N2Cc3ccncc3C2)cnn1C (racemic) | – | 2.6 ×10⁻⁶ cm/s | 0.3 ×10⁻⁶ cm/s | –
CC(C)(C)OC(=O)N1CCC2(CC1)CC2CNC(=O)c1cc2ccncc2o1 (racemic) | > 10 µM | 15 ×10⁻⁶ cm/s | 16 ×10⁻⁶ cm/s | –
CC(C)(C)NC(=O)N1CCC2(CC1)CC2CNC(=O)N1Cc2ccncc2C1 (racemic) | > 10 µM | – | – | –
CS(=O)(=O)c1ccc(CNC(=O)c2cc3cnccc3[nH]2)cc1 | 0.2 µM | – | – | logD at 1 h [1]: 0.8
Nc1cc2[nH]c(C(=O)NCc3ccc(S(=O)(=O)c4cc(F)cc(F)c4)cc3)cc2cn1 | > 10 µM | – | – | Activity [7]: 83%; Activity [8]: 69%
[2H]C1([2H])c2ccncc2C([2H])([2H])N1C(=O)NCC1CC12CCN(C(=O)OC1(C)COC1)CC2 (racemic) | > 10 µM | – | – | –
O=C(/C=C/c1cccnc1)NCCCCC1CCN(C(=O)c2ccccc2)CC1 [DAPORINAD] | 3.6 µM | – | – | IC50 [9]: > 10 µM; IC50 [5]: > 10 µM
Cc1ccc(CNC(=O)Nc2ccc(S(=O)(=O)c3ccccc3)cc2)cn1 | – | – | – | logD at 1 h [1]: 2.4
Cc1nn(C)cc1C(=O)N1CCC2(CC1)CC2CNC(=O)N1Cc2ccncc2C1 (racemic) | – | 1.1 ×10⁻⁶ cm/s | 0.2 ×10⁻⁶ cm/s | –
CC(C)(C)OC(=O)N1CCC2(CC1)CC2CNC(=O)c1cc2cnccc2[nH]1 (racemic) | > 10 µM | 14 ×10⁻⁶ cm/s | 15 ×10⁻⁶ cm/s | –
O=C(NCc1ccc(S(=O)(=O)c2cc(F)cc(F)c2)cn1)c1cc2ccncc2o1 | – | – | – | logD at 1 h [1]: 2.6
O=C(CC1CCOCC1)N1CCC2(CC1)CC2CNC(=O)N1Cc2ccncc2C1 (racemic) | – | 7 ×10⁻⁶ cm/s | 1.4 ×10⁻⁶ cm/s | –
Nc1ccc(CNC(=O)Nc2ccc(S(=O)(=O)c3ccccc3)cc2)cn1 | – | 5.5 ×10⁻⁶ cm/s | 3 ×10⁻⁶ cm/s | Activity [7]: 34%; Activity [8]: 45%; logD at 1 h [1]: 2.7
